Data: US3957779A, “Benzo-1,2,4-triazines” (Bayer Aktiengesellschaft, priority 1972, dated 1976)
≈ marks a conversion by molar mass, not a printed value.

What was measured:
Type in all cases: cell-based
[1] = system: Corynebacterium pyogenes M; assay: Turbidity test in Mueller-Hinton nutrient solution; settings: 100 γ/ml, 24 hours, 37°C
Escherichia coli A 261 = assay: Turbidity test in Mueller-Hinton nutrient solution; settings: 100 γ/ml, 24 hours, 37°C
[2] = system: Diplococcus pneumoniae species; assay: Turbidity test in Mueller-Hinton nutrient solution; settings: 100 γ/ml, 24 hours, 37°C
Serratia species = assay: Turbidity test in Mueller-Hinton nutrient solution; settings: 100 γ/ml, 24 hours, 37°C
Bacteroides species = assay: Turbidity test in Mueller-Hinton nutrient solution; settings: 100 γ/ml, 24 hours, 37°C
[3] = system: Haemophilus influenzae 281; assay: Turbidity test in Mueller-Hinton nutrient solution; settings: 100 γ/ml, 24 hours, 37°C
Streptococcus pyogenes W = assay: Turbidity test in Mueller-Hinton nutrient solution; settings: 100 γ/ml, 24 hours, 37°C
Enterococcus species = assay: Turbidity test in Mueller-Hinton nutrient solution; settings: 100 γ/ml, 24 hours, 37°C
Escherichia coli 14 = assay: Turbidity test in Mueller-Hinton nutrient solution; settings: 100 γ/ml, 24 hours, 37°C
Borrelia species = assay: Turbidity test in Mueller-Hinton nutrient solution; settings: 100 γ/ml, 24 hours, 37°C
[4] = system: Mycobacterium tuberculosis; assay: MIC, series dilution test, Jenssen egg medium; settings: 37°C, read-out: minimum inhibitory concentration
Protocol: The compounds of Examples 12 and 13 show minimum inhibitory concentrations of 32 γ/ml of nutrient medium in the series dilution test, Jenssen egg medium, 37°C, against Mycobacterium tuberculosis.

[5] = system: Proteus indole-negative, species; assay: Turbidity test in Mueller-Hinton nutrient solution; settings: 100 γ/ml, 24 hours, 37°C
Lactobacillus species = assay: Turbidity test in Mueller-Hinton nutrient solution; settings: 100 γ/ml, 24 hours, 37°C
Escherichia coli C 165 = assay: Turbidity test in Mueller-Hinton nutrient solution; settings: 100 γ/ml, 24 hours, 37°C
[6] = system: Proteus indole-positive, species; assay: Turbidity test in Mueller-Hinton nutrient solution; settings: 100 γ/ml, 24 hours, 37°C
Pseudomonas aeruginosa B = assay: Turbidity test in Mueller-Hinton nutrient solution; settings: 100 γ/ml, 24 hours, 37°C
Klebsiella K 63 = assay: Turbidity test in Mueller-Hinton nutrient solution; settings: 100 γ/ml, 24 hours, 37°C
Klebsiella K 10 = assay: Turbidity test in Mueller-Hinton nutrient solution; settings: 100 γ/ml, 24 hours, 37°C
Pseudomonas aeruginosa w = assay: Turbidity test in Mueller-Hinton nutrient solution; settings: 100 γ/ml, 24 hours, 37°C
Clostridium botulinium = system: Clostridium botulinium
[7] = system: Neisseria catarrhalis species; assay: Turbidity test in Mueller-Hinton nutrient solution; settings: 100 γ/ml, 24 hours, 37°C
[8] = system: Pasteurella pseudotuberculosis; settings: 100 γ/ml, 24 hours, 37°C
Salmonella species = assay: Turbidity test in Mueller-Hinton nutrient solution; settings: 100 γ/ml, 24 hours, 37°C
Protocol: (§1) 100 γ/ml of the compounds according to the invention are dissolved in Mueller-Hinton nutrient solution, with addition of 0.1% of glucose. The nutrient solution contains […] microbes per ml. The mixture is incubated in glass test tubes for 24 hours at 37°C and after this time the degree of turbidity is determined.

Shigella species = assay: Turbidity test in Mueller-Hinton nutrient solution; settings: 100 γ/ml, 24 hours, 37°C
Protocol: as §1

[9] = system: Corynebacterium diphtheriae gravis; assay: Turbidity test in Mueller-Hinton nutrient solution; settings: 100 γ/ml, 24 hours, 37°C
Proteus vulgaris 1017 = assay: Turbidity test in Mueller-Hinton nutrient solution; settings: 100 γ/ml, 24 hours, 37°C
Brucella species = settings: 100 γ/ml, 24 hours, 37°C
[10] = system: Bordetella bronchiseptica; assay: Turbidity test in Mueller-Hinton nutrient solution; settings: 100 γ/ml, 24 hours, 37°C
[11] = system: Aeromonas hydrophila species; assay: Turbidity test in Mueller-Hinton nutrient solution; settings: 100 γ/ml, 24 hours, 37°C
Enterobacter species = assay: Turbidity test in Mueller-Hinton nutrient solution; settings: 100 γ/ml, 24 hours, 37°C
[12] = system: Staphylococcus aureus 133; assay: Turbidity test in Mueller-Hinton nutrient solution; settings: 100 γ/ml, 24 hours, 37°C
Clostridium tetani = settings: 100 γ/ml, 24 hours, 37°C

## CNC(=O)Nc1n[n+]([O-])c2ccccc2[n+]1[O-] [Example 12, 1'-[1,4-dioxo-benzo-1,2,4-triazin-3-yl]-3'-methylurea]
[1]
  turbidity after incubation: remained free of turbidity
Escherichia coli A 261
  turbidity after incubation: remained free of turbidity
[2]
  turbidity after incubation: remained free of turbidity
Serratia species
  turbidity after incubation: remained free of turbidity
Bacteroides species
  turbidity after incubation: remained free of turbidity
[3]
  turbidity after incubation: remained free of turbidity
Streptococcus pyogenes W
  turbidity after incubation: remained free of turbidity
Enterococcus species
  turbidity after incubation: remained free of turbidity
Escherichia coli 14
  turbidity after incubation: remained free of turbidity
Borrelia species
  turbidity after incubation: remained free of turbidity
[4]
  MIC: 32 µg/mL (≈ 136 µM)
[5]
  turbidity after incubation: remained free of turbidity
Lactobacillus species
  turbidity after incubation: remained free of turbidity
Escherichia coli C 165
  turbidity after incubation: remained free of turbidity
[6]
  turbidity after incubation: remained free of turbidity
Pseudomonas aeruginosa B
  turbidity after incubation: remained free of turbidity
Klebsiella K 63
  turbidity after incubation: remained free of turbidity
Klebsiella K 10
  turbidity after incubation: remained free of turbidity
Pseudomonas aeruginosa w
  turbidity after incubation: remained free of turbidity
Clostridium botulinium
  turbidity after incubation: remained free of turbidity
[7]
  turbidity after incubation: remained free of turbidity
[8]
  turbidity after incubation: remained free of turbidity
Salmonella species
  turbidity after incubation: remained free of turbidity
Shigella species
  turbidity after incubation: remained free of turbidity
[9]
  turbidity after incubation: remained free of turbidity
Proteus vulgaris 1017
  turbidity after incubation: remained free of turbidity
Brucella species
  turbidity after incubation: remained free of turbidity
[10]
  turbidity after incubation: remained free of turbidity
[11]
  turbidity after incubation: remained free of turbidity
Enterobacter species
  turbidity after incubation: remained free of turbidity
[12]
  turbidity after incubation: remained free of turbidity
Clostridium tetani
  turbidity after incubation: remained free of turbidity
